# Assay: Hepatic first-pass effect / hepatic clearance rate (jugular vs pyloric vein AUC0-t) in inflamed rats
# Assay type: in vivo, Sprague-Dawley rats
# Conditions: inflamed rats (G5, n = 5), oral HLJDD; HCR% = 100×(AUC0−t pyloric vein − AUC0−t jugular vein)/AUC0−t pyloric vein
# Procedure: For the PK-PD analysis, cannulas were implanted in each rat’s jugular vein (n = 22). To study the hepatic first-pass effect (HFPE), the jugular vein and the pyloric vein of each rat (n = 5) were cannulated according to the method described by Hye J. Chung et al. with slight modifications. Instead of the portal vein, the pyloric vein was cannulated to minimize the interference of blood flow in the portal vein [41]. The surgery was performed under anesthesia (3% chloral hydrate solution, intraperitoneal injection; 3.5 mL/kg) 5 days prior to the experiment. Rats with jugular vein intubation surgery were divided into four groups: a control group with HLJDD (G1, n = 6), aninflammatory group with HLJDD (G2, n = 6), aninflammatory group with physiological saline (G3, n = 5) and another inflammatory group with HLJDD (G4, n = 5). G1 and G2 were used for the pharmacokinetic study, while G3 and G4 were used for the pharmacodynamic study. Rats with jugular and pyloric vein cannulation for HFPE analysis were assigned to another inflammatory group with HLJDD (G5, n = 5).
# The prepared HLJDD-EP solution was administered to the rats (G1, G2, G4 and G5) at 2 mL/100g body weight (crude material content: 3.5 g/kg) by oral gavage, and the G3 group was given the same volume of physiological saline. In the G1 and G2 groups, blood specimens (300 μL) were obtained before dosing and subsequently at 5 min, 10 min, 30 min, 1, 2, 4, 6, 8, 12, 24, 36 and 48 h after the oral administration of HLJDD-EP solution. In the G3 and G4 groups, blood samples (300 μL) were collected prior to dosing and followed at 10 min, 30 min, 1, 2, 4, 8, 24 and 48 h after drug administration. The rectal temperature of rats in the G3 and G4 groups was immediately monitored after each collection of blood. For the HFPE assay, blood specimens (150 μL) from both the jugular vein and the pyloric vein of the G5 rats were simultaneously taken before dosing and subsequently at 5 min, 10 min, 30 min, 1, 2, 4, 6, 8, 12, 24, 36 and 48 h after oral administration. Samples were collected in heparinized Eppendorf tubes and centrifuged at 3000 rpm for 15 min. The plasma was stored at -80°C until assay.
# For the pharmacokinetic investigation and HFPE analysis, 100 μL aliquots of plasma were mixed with 5 μL of ascorbic acid (dissolved in physiological saline, w/v: 1 g/100 mL) and 200 μL of methanol (containing an internal standard stock solution with 80.0 ng/mL swertiamarin, 1.5 ng/mL corynoline and 33.0 ng/mL icariin), followed by vortexing and centrifuging at 15000 rpm for 20 min to remove the precipitate. The supernatant was dried with nitrogen at 40°C. […] The supernatant was analyzed using Agilent 1290 ultra-high performance liquid chromatography coupled with an Agilent 6490 Triple Quadrupole Mass Spectrometer (Agilent Technologies, Palo Alto, CA, USA).
# Pharmacokinetic parameters of the determined compounds were processed by the non-compartmental method using Phoenix Winnonlin software (Pharsight Corporation, USA). […] The mean residence time (MRT) was determined as AUMC/AUC. The plasma half-life (HLλz), maximum plasma concentration (Cmax), the time to reach Cmax (Tmax) and other parameters following the administration of HLJDD were determined from the observed data. […] Concentrations of cytokines were analyzed by cytometric bead array software (FCAP Array version 3.0, BD Bioscience). All the data were expressed as the mean±standard deviation (SD). […]
smiles,measurement,value
"COC(=O)C1=CO[C@@H](O[C@@H]2O[C@H](CO[C@@H]3O[C@H](CO)[C@@H](O)[C@H](O)[C@H]3O)[C@@H](O)[C@H](O)[C@H]2O)[C@@H]2C(CO)=CC[C@H]12 [I3, genipin-1-gentiobioside]",hepatic clearance rate (HCR),-156.6%
